Test results published in ChEMBL document CHEMBL4311946, “Mechanistic Insight on the Mode of Action of Colletoic Acid” (J Med Chem, 2019).
The source made the active and inactive calls. The rule behind the calls is not given here.

How the values were obtained:
Homo sapiens [1] = assay: (§1) Anti-adipogenic activity in human subcutaneous preadipocytes assessed as decrease in lipid accumulation at 50 uM incubated for 48 hrs under induction medium containing hydrocortisone hemi-succinate prior to compound washout followed by shifting to differentiation medium containing compound supplemented with fresh medium every 48 to 72 hrs for 9 to 14 days by oil red O staining-based microscopic analysis; assay type: functional, cell-based
Fibroblast = assay: Effect on nascent protein synthesis in mouse fibroblasts assessed as reduction in O-Propargyl-puromycin incorporation at 50 uM measured after 2 hrs by fluorescent azide/pico green dye-based confocal microscopic analysis; assay type: ADME, cell-based
Homo sapiens [2] = species: Homo sapiens; assay: as §1, with “visceral” for “subcutaneous”, “reduction” for “decrease”, “pre-adipocyte differentiation into matured adipocytes” for “lipid accumulation”; assay type: functional, cell-based
3T3-L1 [3] = assay: Anti-adipogenic activity in differentiated mouse 3T3L1 cells assessed as reduction in ACACB mRNA expression at 50 to 100 uM measured after 2 to 7 days by SYBR green dye-based qRT-PCR analysis; assay type: functional, cell-based
3T3-L1 [4] = assay: Anti-adipogenic activity in differentiated mouse 3T3L1 cells assessed as reduction in PGC1alpha expression at 50 uM measured on day 7 by Western blot analysis; assay type: functional, cell-based
3T3-L1 [5] = assay: Anti-adipogenic activity in differentiated mouse 3T3L1 cells assessed as reduction in FABP4 mRNA expression at 50 to 100 uM measured after 2 to 7 days by SYBR green dye-based qRT-PCR analysis relative to control; assay type: functional
[6] = biological target: 11-beta-hydroxysteroid dehydrogenase 1 (Homo sapiens, UniProt P28845, C272S); assay: Inhibition of N-terminal MKHQHQHQHQHQHQQPL-tagged 11beta-HSD1 C272S mutant (unknown origin) expressed in Escherichia coli BL21 (DE3) using cortisol as substrate measured for 1 hr in presence of NADPH by fluorescence assay
Chain of 11-beta-hydroxysteroid dehydrogenase 1 (P28845 whole entry C272S): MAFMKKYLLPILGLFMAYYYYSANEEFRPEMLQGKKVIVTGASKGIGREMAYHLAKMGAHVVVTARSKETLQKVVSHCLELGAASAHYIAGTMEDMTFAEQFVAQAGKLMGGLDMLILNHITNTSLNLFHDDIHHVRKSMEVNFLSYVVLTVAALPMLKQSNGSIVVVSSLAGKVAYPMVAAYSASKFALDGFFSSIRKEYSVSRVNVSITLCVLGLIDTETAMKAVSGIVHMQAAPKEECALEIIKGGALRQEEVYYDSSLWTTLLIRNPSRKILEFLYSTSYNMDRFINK

[7] = biological target: T1, Peroxisome proliferator-activated receptor gamma (Homo sapiens) (UniProt P37231); assay: Antagonist activity at human PPARgamma expressed in 293H cells assessed as reduction in rosiglitazone-induced transcriptional response at 0.002 to 4 uM preincubated for 30 mins followed by rosiglitazone addition and measured after 16 hrs by reporter gene-based FRET assay; assay type: cell-based
T1 sequence (whole entry): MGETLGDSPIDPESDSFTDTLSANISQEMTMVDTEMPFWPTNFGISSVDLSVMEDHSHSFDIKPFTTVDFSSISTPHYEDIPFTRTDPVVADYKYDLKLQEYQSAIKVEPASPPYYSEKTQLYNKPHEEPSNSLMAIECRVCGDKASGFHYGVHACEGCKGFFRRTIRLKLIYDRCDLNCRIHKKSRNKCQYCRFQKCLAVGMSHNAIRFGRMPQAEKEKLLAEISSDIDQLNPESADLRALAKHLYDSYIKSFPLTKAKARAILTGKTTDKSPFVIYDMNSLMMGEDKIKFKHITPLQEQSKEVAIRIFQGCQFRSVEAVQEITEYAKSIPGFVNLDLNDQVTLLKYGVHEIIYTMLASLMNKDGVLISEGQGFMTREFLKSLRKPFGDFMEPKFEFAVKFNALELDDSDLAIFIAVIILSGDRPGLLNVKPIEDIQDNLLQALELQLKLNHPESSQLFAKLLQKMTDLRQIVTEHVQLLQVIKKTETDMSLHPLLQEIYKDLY

[8] = Half life in human liver microsomes; assay type: ADME, Microsome
3T3-L1 [9] = assay: Cytotoxicity against mouse 3T3L1 cells up to 1 mM measured after 72 hrs under induction medium containing dehydrocorticosterone/cortisone by celltiter-glo luminescent cell viability assay; assay type: cell-based; conditions: 3t3-l1, 72 h
[10] = Half life in simulated gastric fluid; assay type: ADME
3T3-L1 [11] = assay: Anti-adipogenic activity in mouse 3T3L1 preadipocytes assessed as reduction in C/EBPdelta mRNA expression at 50 to 100 uM measured daily for 2 days under induction media containing dehydrocorticosterone/cortisone by SYBR green dye-based qRT-PCR analysis; assay type: functional, cell-based
3T3-L1 [12] = assay: Anti-adipogenic activity in mouse 3T3L1 preadipocytes assessed as reduction in C/EBPbeta mRNA expression at 50 to 100 uM measured daily for 2 days under induction media containing dehydrocorticosterone/cortisone by SYBR green dye-based qRT-PCR analysis; assay type: functional, cell-based
3T3-L1 [13] = assay: Anti-adipogenic activity in differentiated mouse 3T3L1 cells assessed as reduction in 11beta-HSD1 expression at 50 uM measured on day 7 by Western blot analysis; assay type: functional, cell-based
3T3-L1 [14] = assay: Cell cycle arrest in mouse 3T3L1 preadipocytes up to 1 mM measured after 24 hrs under non-differentiating medium by propidium iodide staining-based flow cytometry; assay type: ADME; conditions: 3t3-l1, 24 h
3T3-L1 [15] = assay: Anti-adipogenic activity in differentiated mouse 3T3L1 cells assessed as reduction in Glut4 mRNA expression at 50 to 100 uM measured after 2 to 7 days by SYBR green dye-based qRT-PCR analysis; assay type: functional, cell-based
Homo sapiens [16] = assay: as §1, with “reduction” for “decrease”, “pre-adipocyte differentiation into matured adipocytes” for “lipid accumulation”; assay type: functional, cell-based
3T3-L1 [17] = assay: Inhibition of cell differentiation in mouse 3T3L1 cells assessed as reduction in pre-adipocyte differentiation into matured adipocytes at 50 uM incubated for 48 hrs under induction medium containing dehydrocorticosterone/cortisone followed by shifting to differentiation medium and measured after 7 days by Oil red O staining-based microscopic analysis; assay type: functional
3T3-L1 [18] = assay: Anti-adipogenic activity in differentiated mouse 3T3L1 cells assessed as reduction in FASN mRNA expression at 50 to 100 uM measured after 2 to 7 days by SYBR green dye-based qRT-PCR analysis relative to control; assay type: functional
3T3-L1 [19] = assay: Anti-adipogenic activity in mouse 3T3L1 preadipocytes assessed as decrease in lipid accumulation at 10 uM incubated for 48 hrs under induction medium containing dehydrocorticosterone/cortisone followed by shifting to differentiation medium and measured after 7 days by Oil red O staining-based microscopic analysis; assay type: functional, cell-based
3T3-L1 [20] = assay: Anti-adipogenic activity in differentiated mouse 3T3L1 cells assessed as reduction in PPARgamma expression at 50 uM measured on day 7 by Western blot analysis; assay type: functional, cell-based
3T3-L1 [21] = assay: Anti-adipogenic activity in differentiated mouse 3T3L1 cells assessed as reduction in 11beta-HSD1 mRNA expression at 50 to 100 uM measured after 2 to 7 days by SYBR green dye-based qRT-PCR analysis; assay type: functional, cell-based
Homo sapiens [22] = species: Homo sapiens; assay: as §1, with “visceral” for “subcutaneous”; assay type: functional, cell-based
3T3-L1 [23] = assay: Anti-adipogenic activity in differentiated mouse 3T3L1 cells assessed as reduction in PGC1alpha expression at 50 uM measured on day 3 by Western blot analysis; assay type: functional, cell-based
[24] = Stability in mouse plasma; assay type: ADME, cell-free

In the case of `CC1=CC[C@@]2(C[C@@H]1O)[C@@H](C(=O)O)CC[C@H]2C(C)C`, the Activity (Homo sapiens [1]) is reported as “Active”, the Activity (Fibroblast) is reported as “Non-Toxic” and the Activity (Homo sapiens [2]) is reported as “Active”. For the same compound, the Activity (3T3-L1 [3]) was “Active”, the Activity (3T3-L1 [4]) was “Active” and the “fold change (FC)” value (3T3-L1 [5]) was less than 10. The IC50 [6] was 4.1 µM, the Activity [7] was “inactive” and the t1/2 [8] was 1.18 h. For the same compound, the Activity (3T3-L1 [9]) was “Non-Toxic”, the half-life [10] was less than 2 h and the Activity (3T3-L1 [11]) was “Active”. The Activity (3T3-L1 [12]) was “Active”, the Activity (3T3-L1 [13]) was “Active” and the Activity (3T3-L1 [14]) was “Non-Toxic”. The Activity (3T3-L1 [15]) was “Active”, the Activity (Homo sapiens [16]) was “Active” and the inhibition (3T3-L1 [17]) was “Active”. The “fold change (FC)” value (3T3-L1 [18]) was less than 10, the Activity (3T3-L1 [19]) was “Active” and the Activity (3T3-L1 [20]) was “Active”. The Activity (3T3-L1 [21]) was “Active”, the Activity (Homo sapiens [22]) was “Active” and the Activity (3T3-L1 [23]) was “inactive”. For the same compound, the Stability [24] was “Unstable”.
